In general, IC50 refers to the concentration that gives 50% inhibition.

The structures appear in SMILES notation. Values joined by “and” are separate entries in the source; they are usually repeats but may differ in a detail not shown here. Identical values can stand only once. A value given as a limit tells only on which side of the number the result lay.

The target of the test is T1, MAP kinase-activated protein kinase 2 [46-400] (Homo sapiens, UniProt P49137).
T1 construct: 46-400
The experiment in a line: Biochemical Assay. The protocol: This study evaluates the inhibitory potency of invention compound on p38/MK2 pathway vs p38/PRAK pathway. More specially the compound concentration (IC50) was determined that inhibited half of the maximal activation of MK2 or PRAK by p38. MK2 activation study was set up without or with a serial of 10-point 1:3 dilution of invention compound at top dose of […], and PRAK activation study was set up without or with a serial of 10-point 1:3 dilution of invention compound at top dose of 300 μM. The MK2 and PRAK activity were determined by the phosphorylation level of HSP27 peptide conjugated with FITC. […] After 2 h incubation of the reaction mixture with various concentration of invention compound (200 nL), 60 μL 1×IMAP solution Mixture (Molecular Devices, Cat R8127) was added to the reaction mixture and incubated for another half hour. The signal was then read by Synergy Neo2 Multi-Mode Microplate Reader with filter setting (Ex/Em=485 nm/FITC FP-P pol 528 nm & FITC FP-S pol 528 nm). The signal was then normalized to vehicle control and fitted in Xfit to generate IC50. The selectivity of MK2 over PRAK was calculated by the formular Selectivity=IC50 of PRAK/IC50 of MK2.

T1 sequence (P49137 46-400): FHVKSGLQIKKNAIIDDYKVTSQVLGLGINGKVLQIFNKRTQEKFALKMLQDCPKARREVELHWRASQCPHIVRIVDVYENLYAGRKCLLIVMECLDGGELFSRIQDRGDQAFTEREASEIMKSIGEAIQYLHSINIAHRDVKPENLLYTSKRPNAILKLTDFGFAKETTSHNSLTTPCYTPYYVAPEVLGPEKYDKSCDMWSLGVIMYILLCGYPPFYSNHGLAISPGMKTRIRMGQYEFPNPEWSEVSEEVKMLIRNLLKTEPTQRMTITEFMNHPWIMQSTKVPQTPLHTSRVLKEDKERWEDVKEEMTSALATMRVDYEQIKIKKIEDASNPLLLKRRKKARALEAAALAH

For the molecule `Cc1cnnc(COc2cc(C)n(-c3cc(-c4ccnc(C(C)(C)O)n4)ncc3C)c(=O)c2Cl)c1` [US11680056, Example 28A], the IC50 was over 10000 nM. For the molecule `Cc1nn(-c2ccnc(C(C)(C)O)n2)cc1-n1c(C)cc(OCc2ncc(F)cc2F)c(Cl)c1=O` [US11680056, Example 30], the half-inhibitory concentration (IC50) is 631 nM. Then `Cc1cnc(-n2nc(C(C)(C)O)cc2C2CC2)cc1-n1c(C)cc(OCc2ncc(F)cc2F)c(Cl)c1=O` [US11680056, Example 20A], with 2000 nM and > 10000 nM.

The values are drawn from BindingDB's records for patent US11680056 (Xinthera, 2023).
